Source: US11530244B2, “Cyclic polypeptides for PCSK9 inhibition” (priority 2018, dated 2022)
Starred links: 1 amine or outer side, 2 acyl side, 3 side chain; linkers in the order of their positions; H or OH if unused. Positions of bridges follow the written chain, without caps; N, C: chain ends. Non-standard residues stand in square brackets, D forms with d. Residues, ends and D or L forms follow the SMILES beside them. Trp(5-F) = N[C@@H](Cc1c[nH]c2ccc(F)cc12)C(=O)O; Tyr(3-Cl) = N[C@@H](Cc1ccc(O)c(Cl)c1)C(=O)O; mXylylene(5-F) = Fc1cc(C[*:1])cc(C[*:2])c1; X13 = O=C(CCCCc1cccc(CCCCN[*:1])c1)[*:2]; Dip = N[C@H](C(=O)O)C(c1ccccc1)c1ccccc1; X36 = O=C([C@H](CC1=NC=NC1)N[*:1])[*:2]; X4 = O=C(CCSCc1cccc(CSCCN[*:1])c1)[*:2]; mXylylene = c1cc(C[*:1])cc(C[*:2])c1; AEF = NCCOc1ccc(C[C@H](N)C(=O)O)cc1; αMeP = C[C@@]1(C(=O)O)CCCN1; Mpa = O=C(O)CCS

Legend:
[1] = molecular target: human PCSK9 / human LDLR EGFa domain interaction (Homo sapiens (Human), UniProt Q8NBP7); assay: TR-FRET assay of inhibition of the PCSK9-LDLR protein-protein interaction; format: binding; conditions: TR-FRET, 20 nM human PCSK9, 20 nM human LDLR EGFa domain, 2 hours room temperature; read-out: IC50
Procedure, shortened: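 Readout is the TR-FRET signal between europium anti-6×His on his-tagged LDLR EGFa domain and Ulight streptavidin on biotinylated PCSK9, both proteins at 20 nM and both detection reagents at 5 nM. Incubation lasted 2 hours at room temperature; compounds were run in dose-response with a 4-parameter fit.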

[2] = molecular target: PCSK9 (Homo sapiens (Human), UniProt Q8NBP7); assay: PCSK9 Alexa FRET Standard assay (displacement of AlexaFluor647 tagged cyclic peptide Reagent A); format: binding; conditions: PCSK9 Alexa FRET Standard assay, 0.5 nM PCSK9, 20 nM AF cyclic peptide Reagent A; read-out: IC50
Procedure, shortened: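 TR-FRET displacement: 0.5 nM biotinylated PCSK9 with 1.25 nM Strep-Eu and 20 nM AlexaFluor-tagged cyclic peptide (final) in 50 mM HEPES pH 7.4, 0.15 M NaCl, 5 mM CaCl2, 0.01% BSA, 0.01% P20, ≥2 h at room temperature. IC50 from sigmoidal fit, converted to Ki via peptide KD; falling Eu counts flagged false positives.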

Chain of human PCSK9 / human LDLR EGFa domain interaction (Q8NBP7 153-692): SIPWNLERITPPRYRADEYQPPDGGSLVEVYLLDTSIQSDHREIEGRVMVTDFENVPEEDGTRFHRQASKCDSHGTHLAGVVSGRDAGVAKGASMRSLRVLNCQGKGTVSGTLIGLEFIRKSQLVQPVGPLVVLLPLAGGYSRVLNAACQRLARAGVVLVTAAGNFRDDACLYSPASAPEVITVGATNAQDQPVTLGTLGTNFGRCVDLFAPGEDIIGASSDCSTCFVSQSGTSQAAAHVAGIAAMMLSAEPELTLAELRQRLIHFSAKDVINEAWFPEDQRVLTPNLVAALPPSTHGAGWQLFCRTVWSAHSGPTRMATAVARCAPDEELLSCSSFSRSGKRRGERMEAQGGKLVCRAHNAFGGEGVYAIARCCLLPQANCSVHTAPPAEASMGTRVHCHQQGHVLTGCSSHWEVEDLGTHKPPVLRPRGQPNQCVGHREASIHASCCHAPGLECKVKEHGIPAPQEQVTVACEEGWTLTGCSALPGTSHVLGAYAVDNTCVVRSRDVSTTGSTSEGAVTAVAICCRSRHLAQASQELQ
Chain of human PCSK9 / human LDLR EGFa domain interaction (Q8NBP7 31-152 partner): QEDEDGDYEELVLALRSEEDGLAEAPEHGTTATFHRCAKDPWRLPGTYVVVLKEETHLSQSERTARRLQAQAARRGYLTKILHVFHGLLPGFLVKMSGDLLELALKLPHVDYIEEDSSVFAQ
Chain of PCSK9 (Q8NBP7 153-692): as the sequence (Q8NBP7 153-692) above

## NCCCC[C@@H]1NC(=O)CCSCc2cccc(c2)CSC[C@@H](C(N)=O)NC(=O)[C@@H]2CCCN2C(=O)[C@H](Cc2ccc(OCCN)cc2)NC(=O)[C@H](Cc2c[nH]cn2)NC(=O)[C@H](CC(=O)O)NC(=O)[C@H](Cc2c[nH]c3ccc(F)cc23)NC(=O)[C@H](Cc2c[nH]c3ccc(F)cc23)NC(=O)CNC1=O [Compound 265] ([Mpa]KG[Trp(5-F)][Trp(5-F)]DH[AEF]PC-NH2; linker 1-10 via mXylylene)
[1]
  IC50: 0.1 to 1 µM
[2]
  IC50: 0.1 to 1 µM

## C[C@H]1NC(=O)[C@H](CCCCN)NC(=O)CCSCc2cccc(c2)CSCCNC(=O)[C@]2(C)CCCN2C(=O)[C@H](Cc2ccc(O)c(Cl)c2)NC(=O)[C@H](Cc2cnc[nH]2)NC(=O)[C@H](CC(=O)O)NC(=O)[C@H](Cc2c[nH]c3ccc(F)cc23)NC(=O)[C@H](Cc2c[nH]c3ccc(F)cc23)NC1=O [Compound 246] (cyclo(DH[Tyr(3-Cl)][αMeP][X4]K[dA][Trp(5-F)][Trp(5-F)]))
[1]
  IC50: 0.1 to 1 µM
[2]
  IC50: 1 to 12.1 µM

## NCCCC[C@@H]1NC(=O)CCSCc2cccc(c2)CSC[C@@H](C(N)=O)NC(=O)[C@@H]2CCCN2C(=O)[C@H](Cc2ccc(O)cc2)NC(=O)[C@H](Cc2c[nH]cn2)NC(=O)[C@H](CC(=O)O)NC(=O)[C@H](Cc2c[nH]c3ccc(F)cc23)NC(=O)[C@H](Cc2c[nH]c3ccc(F)cc23)NC(=O)CNC1=O [Compound 149] ([Mpa]KG[Trp(5-F)][Trp(5-F)]DHYPC-NH2; linker 1-10 via mXylylene)
[1]
  IC50: 1 to 12.1 µM
[2]
  IC50: 1 to 12.1 µM

## COc1ccc(C[C@@H]2NC(=O)[C@H](Cc3cnc[nH]3)NC(=O)[C@H](CC(=O)O)NC(=O)[C@H](Cc3c[nH]c4ccc(F)cc34)NC(=O)[C@H](Cc3c[nH]c4ccc(F)cc34)NC(=O)[C@H](C)NC(=O)[C@H](NC(C)=O)CCc3cn(nn3)-c3ccc(cc3)C[C@@H](C(N)=O)NC(=O)[C@]3(C)CCCN3C2=O)cc1 [Compound 392]
[1]
  IC50: 0.0001 to 0.1 µM
[2]
  IC50: 0.1 to 1 µM

## COc1ccc(C[C@@H]2NC(=O)[C@@H]3CC/C=C\CO[C@H]4C[C@@H](C(=O)N3)N(C4)C(=O)[C@H](Cc3c[nH]c4ccc(F)cc34)NC(=O)[C@H](Cc3c[nH]c4ccc(F)cc34)NC(=O)[C@@H](C)NC(=O)[C@H](C)NC(=O)[C@@H](NC(C)=O)CC(=O)NCc3ccc(cc3)C[C@@H](C(=O)O)NC(=O)[C@]3(C)CCCN3C2=O)cc1 [Compound 514]
[1]
  IC50: 0.1 to 1 µM
[2]
  IC50: 0.1 to 1 µM

## C[C@H]1NC(=O)[C@H](CCCCN)NC(=O)CCSCc2cc(F)cc(c2)CSC[C@@H](C(N)=O)NC(=O)[C@]2(C)CCCN2C(=O)[C@H](Cc2ccc(O)cc2)NC(=O)[C@H]([C@@H](C)O)NC(=O)[C@@H]2CCCN2C(=O)[C@H](Cc2c[nH]c3ccc(F)cc23)NC(=O)[C@H](Cc2c[nH]c3ccc(F)cc23)NC1=O [Compound 042] ([Mpa]K[dA][Trp(5-F)][Trp(5-F)]PTY[αMeP]C-NH2; linker 1-10 via mXylylene(5-F))
[1]
  IC50: 21 to 50 µM
[2]
  IC50: 1 to 12.1 µM

## COc1ccc(C[C@@H]2NC(=O)[C@H]([C@@H](C)O)NC(=O)[C@@H]3CCCN3C(=O)[C@H](Cc3c[nH]c4ccc(F)cc34)NC(=O)[C@H](Cc3c[nH]c4ccc(F)cc34)NC(=O)[C@@H](C)NC(=O)[C@H](C)NC(=O)CCCCc3cccc(c3)CCCCNC(=O)[C@@H]3CCCN3C2=O)cc1 [Compound 047] (cyclo(A[dA][Trp(5-F)][Trp(5-F)]PTY(Me)P[X13]))
[1]
  IC50: 0.1 to 1 µM
[2]
  IC50: 0.1 to 1 µM

## COc1ccc(C[C@@H]2NC(=O)[C@H](Cc3cnc[nH]3)NC(=O)[C@H](CC(=O)O)NC(=O)[C@H](Cc3c[nH]c4ccc(F)cc34)NC(=O)[C@H](Cc3c[nH]c4ccc(F)cc34)NC(=O)[C@H](C)NC(=O)[C@H](NC(C)=O)CCCc3cn(nn3)-c3ccc(cc3)C[C@@H](C(N)=O)NC(=O)[C@]3(C)CCCN3C2=O)cc1 [Compound 395]
[1]
  IC50: 21 to 50 µM
[2]
  IC50: 21 to 50 µM

## COc1ccc(C[C@@H]2NC(=O)[C@H](CC3=NC=NC3)NC(=O)[C@H](CC(=O)O)NC(=O)[C@H](Cc3c[nH]c4ccc(F)cc34)NC(=O)[C@H](C(c3ccccc3)c3ccccc3)NC(=O)[C@@H](C)NC(=O)[C@H](CCCCN)NC(=O)CCSCc3cccc(c3)CSCCNC(=O)[C@]3(C)CCCN3C2=O)cc1 [Compound 275] (cyclo(D[X36]Y(Me)[αMeP][X4]K[dA][Dip][Trp(5-F)]))
[1]
  IC50: 0.0001 to 0.1 µM
[2]
  IC50: 0.00011 to 0.1 µM

## COc1ccc(C[C@@H]2NC(=O)[C@@H]3CCC/C=C\CO[C@H]4C[C@@H](C(=O)N3)N(C4)C(=O)[C@H](Cc3c[nH]c4ccc(F)cc34)NC(=O)[C@H](Cc3c[nH]c4ccc(F)cc34)NC(=O)[C@@H](C)NC(=O)CCCCCC(=O)NCc3ccc(cc3)C[C@@H](C(N)=O)NC(=O)[C@]3(C)CCCN3C2=O)cc1 [Compound 512]
[1]
  IC50: 0.0001 to 0.1 µM
[2]
  IC50: 0.00011 to 0.1 µM
